This passage reports IC50 and solubility results from ChEMBL document CHEMBL4616673 (J Med Chem, 2020).

For data set [1], the target named is Dihydroorotate dehydrogenase (quinone), mitochondrial (Homo sapiens, UniProt Q02127). Briefly: Inhibition of human DHODH using dihydroorotate as substrate and CoQ10 as co-substrate preincubated for 30 mins followed by substrate addition by DCIP coupled microplate reader assay.
The nature of data set [2]: Solubility of the compound in PBS. Format: physicochemical.
The next data set relates to A-375. Briefly: Antiproliferative activity against human A375 cells assessed as reduction in cell viability measured after 48 hrs by MTT assay. Format: functional, cell-based. The note with it: Homo sapiens, A-375, 48 h. (In general: Tetrazolium dyes change colour on reduction, which living cells bring about.)
A further data set deals with HCT-116. Put plainly: Antiproliferative activity against human HCT116 cells assessed as reduction in cell viability measured after 48 hrs by MTT assay. It is filed as functional, cell-based. The note with it: Homo sapiens, HCT-116, 48 h.
The subject of a further data set is HeLa. Briefly: Antiproliferative activity against human HeLa cells assessed as reduction in cell viability measured after 48 hrs by MTT assay. It is filed as functional, cell-based. As to conditions: Homo sapiens, HeLa, 48 h.
In the next data set the test system is A549. Put plainly: Antiproliferative activity against human A549 cells assessed as reduction in cell viability measured after 48 hrs by MTT assay. Format: functional, cell-based. The note with it: Homo sapiens, A549, 48 h.
Another data set relates to MCF7. Briefly: Antiproliferative activity against human MCF7 cells assessed as reduction in cell viability measured after 48 hrs by MTT assay. It is filed as functional, cell-based. The note with it: Homo sapiens, MCF7, 48 h.
The next data set concerns Raji. Briefly: Antiproliferative activity against human Raji cells assessed as reduction in cell viability measured after 48 hrs by MTT assay. Format: functional, cell-based. The note with it: Homo sapiens, Raji, 48 h.
A further data set relates to K562. Briefly: Antiproliferative activity against human K562 cells assessed as reduction in cell viability measured after 48 hrs by MTT assay. It is filed as functional, cell-based. As to conditions: Homo sapiens, K562, 48 h.
A further data set deals with NAMALVA. Put plainly: Antiproliferative activity against human NAMALWA cells assessed as reduction in cell viability measured after 48 hrs by MTT assay. As to conditions: Homo sapiens, NAMALVA, 48 h. Format: functional, cell-based.

Dihydroorotate dehydrogenase (quinone), mitochondrial, sequence (Q02127 whole entry): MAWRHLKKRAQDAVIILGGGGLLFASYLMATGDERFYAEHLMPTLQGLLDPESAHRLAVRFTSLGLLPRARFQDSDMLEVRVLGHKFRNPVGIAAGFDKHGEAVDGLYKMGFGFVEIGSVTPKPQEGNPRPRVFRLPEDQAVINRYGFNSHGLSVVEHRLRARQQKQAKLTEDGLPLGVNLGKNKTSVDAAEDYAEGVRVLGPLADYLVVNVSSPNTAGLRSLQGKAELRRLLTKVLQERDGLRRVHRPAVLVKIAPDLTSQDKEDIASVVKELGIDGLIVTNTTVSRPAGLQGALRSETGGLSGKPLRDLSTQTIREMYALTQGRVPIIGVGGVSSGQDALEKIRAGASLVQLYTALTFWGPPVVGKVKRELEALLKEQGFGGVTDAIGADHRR

For the compound `O=C1c2ccccc2C(=O)c2c1nnn2-c1ccc(-c2ccccc2F)cc1`, the IC50 (commonly the point on the concentration scale where inhibition reaches its midpoint) is 0.0045 µM in [1]; 2.98 µM in the data set on A-375; 3.33 µM in the data set on HCT-116; greater than 10 µM in the data set with HeLa; greater than 10 µM in the data set with A549; greater than 10 µM in the data set on MCF7. The 50% inhibitory concentration (IC50) with Raji is 2.23 µM; with K562, 1.87 µM; in the data set with NAMALVA it was 2.79 µM. The solubility (as a rule, the dissolved amount per volume that the medium holds) in data set [2] is less than 10 µg/mL.

In the case of `COC(=O)Cc1cccc(-c2c(F)cc(-n3nnc4c3C(=O)c3ccccc3C4=O)cc2F)c1`, the IC50 in data set [1] was 0.0046 µM; in the data set with A-375, 0.42 µM; in the data set on HCT-116, 1.61 µM; in the data set on HeLa, greater than 10 µM; with A549 it was greater than 10 µM; with MCF7 it was greater than 10 µM. Also, the IC50 in the data set on Raji is 3.76 µM; with K562, 2.41 µM; with NAMALVA, greater than 10 µM. For the same compound, the solubility in [2] is less than 10 µg/mL.

For `O=C1c2ccccc2C(=O)c2c1nnn2-c1cc(F)c(-c2ccc(F)cc2)c(F)c1`, the IC50 is 0.0069 µM in data set [1]; 1.58 µM in the data set on A-375; 2.25 µM in the data set on HCT-116; greater than 10 µM in the data set with HeLa; greater than 10 µM with A549; greater than 10 µM in the data set with MCF7. The IC50 in the data set with Raji, in the data set with K562 and in the data set on NAMALVA was greater than 10 µM in each case.

On to `CC(C)c1ccc(-c2cc(F)c(-n3nnc4c3C(=O)c3ccccc3C4=O)c(F)c2)cc1`, for which the IC50 in data set [1] was greater than 1 µM.

`O=C1c2ccccc2C(=O)c2c1nnn2-c1ccc(N2CCOCC2)nc1` registered an IC50 in [1] greater than 1 µM.

As for `CC(C)c1ccc(-c2c(F)cc(-n3nnc4c3C(=O)c3ccccc3C4=O)cc2F)cc1`, the IC50 in data set [1] is 0.076 µM.

On to `O=C1c2ccccc2C(=O)c2c1nnn2-c1ccc(-c2ccccc2)cc1`, for which the IC50 in data set [1] was 0.019 µM; in the data set with A-375, 5.83 µM; in the data set on HCT-116 it was 4.23 µM; in the data set with HeLa, greater than 10 µM; in the data set on A549, greater than 10 µM; in the data set with MCF7, greater than 10 µM. Further, the IC50 with Raji is 4.61 µM; in the data set on K562 it was greater than 10 µM; in the data set with NAMALVA, 1.87 µM.

With `O=C1c2ccccc2C(=O)c2c1nnn2-c1ccc2ccccc2c1`, the IC50 in data set [1] was greater than 1 µM.

`O=C1c2ccccc2C(=O)c2c1nnn2-c1ccc(-c2cccnc2)cc1` gave an IC50 in [1] of 0.422 µM.

`CC(C)c1ccc(-n2nnc3c2C(=O)c2ccccc2C3=O)cc1` registered an IC50 in data set [1] of 0.56 µM.

Consider `CC(C)C1CC(=O)c2nnn(-c3cc(F)c(-c4ccccc4F)c(F)c3)c2C1` (stereo unspecified), for which the IC50 in data set [1] turned out to be 0.52 µM.

In [1], `COc1ccccc1-n1nnc2c1C(=O)c1ccccc1C2=O` had an IC50 greater than 1 µM.

`O=C1c2ccccc2C(=O)c2c1nnn2-c1nc2ccccc2[nH]1` came in with an IC50 in [1] greater than 1 µM.

With `O=C1c2ccccc2C(=O)c2c1nnn2-c1ccc2c(c1)OCO2`, the IC50 in data set [1] is greater than 1 µM.

`N#Cc1cccc(-n2nnc3c2C(=O)c2ccccc2C3=O)c1`: in data set [1], the IC50 is greater than 1 µM.

In turn, `CC1(C)CC(=O)c2nnn(-c3cc(F)c(-c4ccccc4F)c(F)c3)c2C1` gave an IC50 in data set [1] greater than 1 µM.

Compound `Cc1ccc(-n2nnc3c2C(=O)c2ccccc2C3=O)cc1C(F)(F)F` had an IC50 in [1] greater than 1 µM.

In the case of `Nc1ccccc1-c1ccc(-n2nnc3c2C(=O)c2ccccc2C3=O)cc1`, the IC50 in data set [1] is 0.02 µM; in the data set on A-375, 1.93 µM; in the data set on HCT-116, 2.3 µM; with HeLa, greater than 10 µM; in the data set with A549, greater than 10 µM; in the data set on MCF7, greater than 10 µM. Further, the figures for the IC50 with Raji, with K562 and with NAMALVA were 3.84 µM, 2.16 µM and 5.05 µM, respectively.

In the case of `COc1cccc(-c2ccc(-n3nnc4c3C(=O)c3ccccc3C4=O)cc2)c1`, in data set [1], it took 0.1 µM to reach half-maximal inhibition (IC50).

In data set [1], `O=C1c2ccccc2C(=O)c2c1nnn2-c1ccc(-c2cccc(F)c2)cc1` came in with an IC50 of 0.056 µM.

As to `O=C1c2ccccc2C(=O)c2c1nnn2-c1ccc(-c2cc(C(F)(F)F)cc(C(F)(F)F)c2)cc1`, the IC50 in [1] was greater than 1 µM.

Turning to `O=C1c2ccccc2C(=O)c2c1nnn2-c1ccc(-c2cncnc2)cc1`, the IC50 in [1] is greater than 1 µM.

Consider `O=C(c1ccccc1)c1cn(-c2cc(F)c(-c3ccccc3F)c(F)c2)nn1`, for which the IC50 in [1] was greater than 1 µM.

Compound `CC(C)c1ccc(-c2ccc(-n3nnc4c3C(=O)c3ccccc3C4=O)c(F)c2)cc1` yielded an IC50 in [1] greater than 1 µM.

`COc1ccc2c(c1)C(=O)c1c(nnn1-c1cc(F)c(-c3ccccc3F)c(F)c1)C2=O` gave an IC50 in data set [1] greater than 1 µM.

In turn, `COC(=O)c1cccc(-c2ccc(-n3nnc4c3C(=O)c3ccccc3C4=O)cc2)c1` came in with an IC50 in data set [1] of 0.55 µM.

In the case of `Cc1cc(-n2nnc3c2C(=O)c2ccccc2C3=O)ccc1F`, the half-maximal inhibitory concentration (IC50) in data set [1] was greater than 1 µM.

With `COc1cc(-c2ccc(-n3nnc4c3C(=O)c3ccccc3C4=O)cc2)cc(OC)c1OC`, in [1], the IC50 is greater than 1 µM.

With `O=C1c2ccccc2C(=O)c2c1nnn2-c1ccc(Cl)nc1`, the IC50 in data set [1] is greater than 1 µM.

For `Nc1ccc(-c2ccc(-n3nnc4c3C(=O)c3ccccc3C4=O)cc2)cc1`, the IC50 in data set [1] was 0.025 µM; in the data set on A-375 it was 1.9 µM; in the data set with HCT-116, greater than 10 µM; with HeLa it was greater than 10 µM; with A549, greater than 10 µM; in the data set with MCF7, greater than 10 µM. The IC50 is greater than 10 µM in the data set with Raji, 0.24 µM in the data set on K562 and greater than 10 µM in the data set on NAMALVA.

For the compound `Nc1cccc(-n2nnc3c2C(=O)c2ccccc2C3=O)c1`, the 50% inhibitory concentration (IC50) in data set [1] was greater than 1 µM.

In data set [1], `O=C1c2ccc(F)cc2C(=O)c2c1nnn2-c1cc(F)c(-c2ccccc2F)c(F)c1` registered an IC50 of 0.152 µM.

With `O=C1c2ccccc2C(=O)c2c1nnn2-c1ccc(-c2ccccc2O)cc1`, the IC50 in [1] was determined as 0.23 µM.

In data set [1], `O=C1c2ccccc2C(=O)c2c1nnn2-c1ccncc1` registered an IC50 greater than 1 µM.

With `O=C1c2cc(O)ccc2C(=O)c2c1nnn2-c1cc(F)c(-c2ccccc2F)c(F)c1`, the half-maximal inhibitory concentration (IC50) in [1] was greater than 1 µM.

In data set [1], `O=C1c2ccccc2C(=O)c2c1nnn2-c1cccc(I)c1` registered an IC50 greater than 1 µM.

In data set [1], `Fc1ccccc1-c1c(F)cc(-n2cc(-c3ccccc3)nn2)cc1F` showed an IC50 greater than 1 µM.

In turn, `Cc1cc(-c2ccc(-n3nnc4c3C(=O)c3ccccc3C4=O)cc2)ccn1` yielded an IC50 in [1] greater than 1 µM.

For `O=C1c2ccccc2C(=O)c2c1nnn2-c1ccccc1C(F)(F)F`, in data set [1], the IC50 was greater than 1 µM.

On to `O=C1c2ccccc2C(=O)c2c1nnn2-c1ccnc(Cl)c1`, for which the IC50 in data set [1] was greater than 1 µM.

In turn, `O=C1c2cc(F)ccc2C(=O)c2c1nnn2-c1cc(F)c(-c2ccccc2F)c(F)c1` registered an IC50 in data set [1] of 0.098 µM.

For the compound `N#Cc1ccccc1-n1nnc2c1C(=O)c1ccccc1C2=O`, the IC50 in [1] was greater than 1 µM.

Regarding `O=C1c2ccccc2C(=O)c2c1nnn2-c1ccc(-c2cccc(O)c2)cc1`, the 50% inhibitory concentration (IC50) in data set [1] is 0.021 µM; in the data set with A-375, greater than 10 µM; with HCT-116 it was greater than 10 µM; with HeLa, greater than 10 µM; with A549 it was greater than 10 µM; with MCF7 it was greater than 10 µM. Further, the 50% inhibitory concentration (IC50) in the data set with Raji was 9.04 µM; with K562 it was 7.09 µM; in the data set on NAMALVA, greater than 10 µM.

In data set [1], `O=C1c2ccccc2C(=O)c2c1nnn2-c1ccc(-c2ccncc2)cc1` showed an IC50 greater than 1 µM.

Compound `COc1ccc2c(c1)C(=O)c1nnn(-c3cc(F)c(-c4ccccc4F)c(F)c3)c1C2=O` displayed a half-maximal inhibitory concentration (IC50) in [1] greater than 1 µM.

Take `O=C1c2ccccc2C(=O)c2c1nnn2-c1cccc(O)c1`: the IC50 in data set [1] is greater than 1 µM.

Take `O=C1c2ccc(O)cc2C(=O)c2c1nnn2-c1cc(F)c(-c2ccccc2F)c(F)c1`: the IC50 in [1] is greater than 1 µM.

Compound `O=C1CCCc2c1nnn2-c1cc(F)c(-c2ccccc2F)c(F)c1` had an IC50 in [1] greater than 1 µM.
